Source: patent US9623009B2, “Veliparib in combination with carboplatin and paclitaxel for the treatment of non-small cell lung cancer in smokers” (AbbVie Inc., priority 2014, dated 2017)

Legend:
[1] = system: metastatic or advanced non-small cell lung cancer (NSCLC); assay: Phase 2 randomized double-blind study: PFS and OS with veliparib + carboplatin/paclitaxel versus placebo + carboplatin/paclitaxel; type: in vivo, human
Method: (§1) A Phase 2, randomized, double-blind, multi-center study was conducted evaluating the efficacy, safety, and tolerability of veliparib in combination with carboplatin and paclitaxel versus placebo in combination with carboplatin and paclitaxel in subjects with documented metastatic or advanced non-small cell lung cancer (NSCLC) as first-line chemotherapy. Patients were randomized in a 2:1 ratio to either veliparib+carboplatin/paclitaxel or placebo+carboplatin/paclitaxel. Patient randomization was stratified by histology (squamous cell versus non-squamous cell), and smoking history (current smoker versus never smoked versus past smoker). Screening procedures and baseline radiographic tumor assessments were performed within 21 days prior to the first day veliparib/placebo was administered. Radiographic tumor assessments were conducted every 6 weeks and were sent to a central imaging center for review. Dosing of oral veliparib/placebo (120 mg) began 2 days prior to the start of the carboplatin/paclitaxel and was given twice a day (BID) for 7 days. […] All subjects were to remain on study until reaching a protocol defined event of disease progression. Patients who completed 6 cycles of treatment remained on study/off study drugs until reaching an event of disease progression. Chemotherapy or biological therapy (maintenance therapy) was not allowed until disease progression. Patients who experienced toxicities due to carboplatin/paclitaxel or veliparib may have been given a delay in the dosing schedule or a dose modification.

clinical = assay: clinical
Method: as §1
Pharmacokinetic parameters were evaluated for patients with chemical evidence of recent smoking (cotinine high^b, >10 ng/mL) compared with those without evidence of recent smoking (cotinine low, ≦10 ng/mL).

[2] = patients without chemical evidence of smoking

For `C[C@]1(c2nc3c(C(N)=O)cccc3[nH]2)CCCN1` [Veliparib, 2-[(2R)-2-methylpyrrolidin-2-yl]-1H-benzimidazole-4-carboxamide], the “HR for OS” value ([1]; light smokers (<39 pack-years)) was 0.808, the “HR for PFS” value ([1]; light smokers (<39 pack-years)) was 0.971 and the “HR for OS” value [1, 2] was 0.921. For the same compound, the “HR for PFS” value [1, 2] was 0.966, the “Tmax, Mean ± SD (% CV)” value (clinical; human, in vivo, po) was 1.05 ± 0.82 (78.3) hr and the Tmax (clinical; human, in vivo, po, Tmax, Mean ± SD (% CV)) was 1.34 h.

With `N.N.O=C([O-])C1(C(=O)[O-])CCC1.[Pt+2]` [carboplatin] the “differences in levels between cotinine high and cotinine low patients” value (clinical; cotinine high >10 ng/mL vs cotinine low ≦10 ng/mL) was “no clear differences”.
